# According to patent US11865090B2, “Tumor suppressive microRNAs for cancer therapy” (Hadasit Medical Research Services and Development Ltd., priority 2018, dated 2024):
# Legend:
# [1] = test system: miR-122; test: AGPAT1-3'UTR (miR-122 target site) luciferase reporter in Huh7 cells; format: cell-based, human; conditions: 10 μM for 24 hours, DNMT1 3'-UTR as negative control
# Experimental: Next, Huh7 cells were transfected with a reporter plasmid carrying the human AGPAT1-3′UTR (miR-122 target site) or a negative control reporter plasmid, DNMT1 3′-UTR. Cells were treated for 24 hours with: 0.4% DMSO, or with 75 μM lauric acid (LA) or with RORα agonist (10 μM SR1078) for 24 hours. Presented in FIG. 4B are bar graphs showing the results of the Luciferase assay. Luciferase activity was measured 48 hours post transfection and normalized to Renilla Luciferase activity expressed from a co-transfected pRL plasmid.
# [2] = test system: miR-122; test: In vivo miR-122 and CD24 mRNA levels after injection into BALB/C mice
# Experimental: As shown in FIG. 8A—SR1078 agent (ROR alpha activator) was injected (1-5 μM) into BALB/C mice and was able to induce miR-122 expression within 3 hours, as indicated by the increased relative expression levels of miR-122 in the liver. miRNA-122 increased expression is in hepatocytes (“producing cells”).
# The CD24 gene, the protein product of which is expressed on hepatic progenitors, is a target of miR-122.
# [3] = test system: miR-122 promoter; test: miR-122 promoter luciferase reporter (PmiR-122-900) in BNL-1ME cells; format: cell-based, mouse; conditions: 10 μM overnight, measured 48 hours post transfection, normalized to Renilla
# Experimental: (§1) Huh7 cells or BNL-1ME cells were transfected with the reporter constructs PmiR-122-900 (wt) or PmiR-122-900 mutated (mut) at RORα binding site. These constructs harbour about 1 kb of miR-122 promoter sequence (wt or mutated at the ROR alpha binding site), ligated to a luciferase (Luc) reporter gene. […] Controls included incubation of the cells with 0.4% DMSO (negative control), or with 75 μM Lauric acid (LA), which is a known activator of ROR-alpha. Luciferase activity was measured 48 hours post transfection and normalized to Renilla Luciferase activity expressed from a co-transfected pRL plasmid.
# [4] = test system: miR-122; test: In vivo miR-122 and CD24 mRNA levels after injection into MDR2 knockout mice; conditions: three months old MDR2 KO mice, 6 hours after administration
# Experimental: Similar effect is also apparent in measurements performed 6 hours after administration of the inducing agent, to three months old MDR2 knockout (KO) mice (which is a mice that develops liver cancer). This is presented in FIGS. 8C-D, which show the increase in relative levels of miR-122 (FIG. 8C) in liver extracts (hepatocytes) and the reciprocal reduction of CD24 relative expression levels (FIG. 8D), in progenitor cells.
# [5] = test system: miR-122; test: qRT-PCR of miR-122 in medium of Huh7 cells; format: cell-based, human; conditions: 10 μM for 24 hours, normalized to spiked miR-39
# Experimental: Shown in FIG. 4C is qRT-PCR analysis of miR-122 and miR-18 (negative control) in RNA extracted from the medium of Huh7 cells treated with 0.4% DMSO, 75 μM lauric acid (LA) or 10 μM RORα agonist (SR1078) for 24 hours. The microRNA levels in the cells' medium were normalized to spiked C. elegance miR-39.
# [6] = test system: miR-122 promoter; test: miR-122 promoter luciferase reporter (PmiR-122-900) in Huh7 cells; format: cell-based, human; conditions: 10 μM overnight, measured 48 hours post transfection, normalized to Renilla
# Experimental: as §1
# [7] = test system: miR-34a; test: miR-34a expression and secretion in Huh7 cells (RT-qPCR); format: cell-based, human; conditions: 10 μM overnight
# Experimental: Huh7 cells treated with ROR-alpha agonist SR1078 (10 μM) overnight (o/n). Upon treatment, primary miR-34a expression levels and mature miR-34a secretion were elevated. miR-34a levels were tested in the cells and in their culture medium using RT-qPCR. The results clearly show elevation in the levels of miR-34a in the cells, as well as a marked elevation of the miR-34a in the external medium, indicating the miR-34a is secreted from the cells.
smiles,measurement,setting,value
O=C(Nc1ccc(C(O)(C(F)(F)F)C(F)(F)F)cc1)c1ccc(C(F)(F)F)cc1 [SR1078],expression of active miR-122 acting on AGPAT1 reporter construct (Luciferase assay),[1],increased expression of active miRNA
same,relative levels (RQ) of mRNA of CD24 in hepatic progenitor cells,[2]; after injection of SR1078,reduced
same,relative expression levels of miR-122 in the liver,"[2]; injected (1-5 μM), 3 hours",increased
same,miR-122 promoter activity (Luciferase reporter),[3],activation of the miR-122 promoter
same,CD24 relative expression levels in progenitor cells,[4],reduction
same,relative levels of miR-122 in liver extracts (hepatocytes),[4],increase
same,miRNA-122 levels in the medium,[5],increase
same,miR-122 promoter activity (Luciferase reporter),[6],activation of the miR-122 promoter
same,mature miR-34a secretion,[7]; RT-qPCR in culture medium,elevated
same,primary miR-34a expression levels,[7]; RT-qPCR in the cells,elevated
